Laboratory results published in patent US8889667B2 (Agios Pharmaceuticals, Inc, priority 2010, dated 2014).

Molecular target: PKM2 (Homo sapiens, UniProt P14618)
Test: PKM2 Assay (activation, LDH-coupled, absorbance at 340 nm)
Assay type: biochemical
Outline: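 Human PKM2 (50 ng/well) was preincubated with compound and coupling mix for 30 min at 4 °C without ADP. Reactions were then started with ADP (0.7 mM) alongside PEP 0.15 mM, NADH 180 μM and LDH, in Tris pH 7.5/KCl/MgCl2/DTT/BSA buffer. A340 was followed at 25 °C and activation reported as AC50.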

Chain of PKM2 (P14618 whole entry): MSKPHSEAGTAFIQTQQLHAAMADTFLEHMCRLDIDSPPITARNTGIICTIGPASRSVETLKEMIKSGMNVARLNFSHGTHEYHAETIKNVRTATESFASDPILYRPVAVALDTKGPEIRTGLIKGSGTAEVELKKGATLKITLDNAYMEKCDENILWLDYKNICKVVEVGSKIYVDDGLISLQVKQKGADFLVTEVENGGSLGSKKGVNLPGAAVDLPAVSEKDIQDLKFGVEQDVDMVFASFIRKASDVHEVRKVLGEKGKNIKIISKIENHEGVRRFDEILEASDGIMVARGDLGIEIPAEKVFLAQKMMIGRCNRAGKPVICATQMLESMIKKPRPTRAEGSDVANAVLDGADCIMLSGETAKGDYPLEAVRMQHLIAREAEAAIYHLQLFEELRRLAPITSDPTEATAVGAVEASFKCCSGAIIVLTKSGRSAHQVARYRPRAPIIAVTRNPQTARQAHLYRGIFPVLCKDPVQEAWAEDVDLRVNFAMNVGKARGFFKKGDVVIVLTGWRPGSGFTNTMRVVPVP

Structure (SMILES) | AC50 (Table 4) [nM] | AC50 (Table 5) [nM]
C[C@H]1CN(CC2CCOC2)CCN1C(=O)c1ccc(NS(=O)(=O)c2cccc3cccnc23)cc1Cl (stereo partly drawn) [Compound 187, N-(3-chloro-4-((2S)-2-methyl-4-((tetrahydrofuran-3-yl)methyl)piperazine-1-carbonyl)phenyl)quinoline-8-sulfonamide] | 100 to 500 | 
O=C(OC1CCOCC1)N1CCN(C(=O)c2ccc(NS(=O)(=O)c3cccc4cccnc34)c(OC(F)(F)F)c2)CC1 [Compound 314, tetrahydro-2H-pyran-4-yl-4-(4-(quinoline-8-sulfonamido)-3-(trifluoromethoxy)benzoyl)piperazine-1-carboxylate] |  | 1000 to 20000
O=C(c1ccc(NS(=O)(=O)c2cccc3cccnc23)c(OC(F)(F)F)c1)N1CCN(Cc2ccncc2F)CC1 [Compound 304, N-(4-(4-((3-fluoropyridin-4-yl)methyl)piperazine-1-carbonyl)-2-(trifluoromethoxy)phenyl)quinoline-8-sulfonamide] |  | 100 to 500
O=C(c1cnc(NS(=O)(=O)c2cccc3cccnc23)cn1)N1CCN(Cc2ccc(F)cc2)CC1 [Compound 452, N-(5-(4-(4-fluorobenzyl)piperazine-1-carbonyl)pyrazin-2-yl)quinoline-8-sulfonamide] |  | 1000 to 20000
CCOC(=O)N1CCN(C(=O)c2ccc(NS(=O)(=O)c3cccc4cccnc34)nc2)CC1 [Compound 446, Ethyl 4-(6-(quinoline-8-sulfonamido)nicotinoyl)piperazine-1-carboxylate] |  | 1000 to 20000
COc1ccncc1CN1CCN(C(=O)c2ccc(NS(=O)(=O)c3cccc4cccnc34)c(OC(F)(F)F)c2)CC1 [Compound 305, N-(4-(4-((4-methoxypyridin-3-yl)methyl)piperazine-1-carbonyl)-2-(trifluoromethoxy)phenyl)quinoline-8-sulfonamide] |  | 100 to 500
O=C(c1cccnc1)N1CCN(C(=O)c2ccc(NS(=O)(=O)c3cccc4cccnc34)c(OC(F)(F)F)c2)CC1 [Compound 323, N-(4-(4-nicotinoylpiperazine-1-carbonyl)-2-(trifluoromethoxy)phenyl)quinoline-8-sulfonamide] |  | 500 to 1000
O=C(c1ccc(NS(=O)(=O)c2cccc3cccnc23)cc1)N1CCN(CC2CCC2)CC1 [Compound 419, N-(4-(4-(cyclobutylmethyl)piperazine-1-carbonyl)phenyl)quinoline-8-sulfonamide] |  | < 100
O=C(c1ccc(NS(=O)(=O)c2cccc3cccnc23)cc1)N1CCN(Cc2cn[nH]c2)CC1 [Compound 385, N-(4-(4-((1H-pyrazol-4-yl)methyl)piperazine-1-carbonyl)phenyl)quinoline-8-sulfonamide] |  | < 100
O=C(c1ccc(NS(=O)(=O)c2cccc3cccnc23)cc1)N1CCN(C2(c3ccccc3)CCCCC2)CC1 [Compound 407, N-(4-(4-(1-phenylcyclohexyl)piperazine-1-carbonyl)phenyl)quinoline-8-sulfonamide] |  | < 100
O=C(c1ccc(NS(=O)(=O)c2cccc3cccnc23)c(OC(F)(F)F)c1)N1CCN(Cc2ccncc2Cl)CC1 [Compound 307, N-(4-(4-((3-chloropyridin-4-yl)methyl)piperazine-1-carbonyl)-2-(trifluoromethoxy)phenyl)quinoline-8-sulfonamide] |  | 100 to 500
O=C(c1ccc(NS(=O)(=O)c2cccc3cccnc23)c(OC(F)(F)F)c1)N1CCN(Cc2cncc(Cl)c2)CC1 [Compound 367, N-(4-(4-((5-chloropyridin-3-yl)methyl)piperazine-1-carbonyl)-2-(trifluoromethoxy)phenyl)quinoline-8-sulfonamide] |  | 100 to 500
O=C(c1ccc(NS(=O)(=O)c2cccc3cccnc23)c(OC(F)(F)F)c1)N1CCN(Cc2ccc(F)cc2F)CC1 [Compound 369, N-(4-(4-(2,4-difluorobenzyl)piperazine-1-carbonyl)-2-(trifluoromethoxy)phenyl)quinoline-8-sulfonamide] |  | 500 to 1000
O=C(c1ccc(NS(=O)(=O)c2cccc3cccnc23)cc1)N1CCN(C(=O)c2cocn2)CC1 [Compound 347, N-(4-(4-(oxazole-4-carbonyl)piperazine-1-carbonyl)phenyl)quinoline-8-sulfonamide] |  | 100 to 500
O=C(c1ccc(NS(=O)(=O)c2cccc3cccnc23)cc1)N1CCN(C(=O)c2ccno2)CC1 [Compound 365, N-(4-(4-(isoxazole-5-carbonyl)piperazine-1-carbonyl)phenyl)quinoline-8-sulfonamide] |  | < 100
O=C(c1ccc(NS(=O)(=O)c2cccc3cccnc23)cn1)N1CCN(Cc2ccc(F)cc2)CC1 [Compound 416, N-(6-(4-(4-fluorobenzyl)piperazine-1-carbonyl)pyridin-3-yl)quinoline-8-sulfonamide] |  | 100 to 500
O=C(c1ccc(NS(=O)(=O)c2cccc3cccnc23)cc1Cl)N1CCN(Cc2ccc(Cl)c(F)c2)CC1 [Compound 432, N-(3-chloro-4-(4-(4-chloro-3-fluorobenzyl)piperazine-1-carbonyl)phenyl)quinoline-8-sulfonamide] |  | 100 to 500
O=C(c1ccc(NS(=O)(=O)c2cccc3cccnc23)cc1)N1CCN(C2(c3ccc(F)cc3)CC2)CC1 [Compound 399, N-(4-(4-(1-(4-fluorophenyl)cyclopropyl)piperazine-1-carbonyl)phenyl)quinoline-8-sulfonamide] |  | < 100
CC(C)COC(=O)N1[C@H](C)CN(C(=O)c2ccc(NS(=O)(=O)c3cccc4cccnc34)cc2)C[C@@H]1C [Compound 105, (2S,6R)-isobutyl-2,6-dimethyl-4-(4-(quinoline-8-sulfonamido)benzoyl)piperazine-1-carboxylate] | 100 to 500 | 
CC(C)(c1ccccc1)N1CCN(C(=O)c2ccc(NS(=O)(=O)c3cccc4cccnc34)c(OC(F)(F)F)c2)CC1 [Compound 340, N-(4-(4-(2-phenylpropan-2-yl)piperazine-1-carbonyl)-2-(trifluoromethoxy)phenyl)quinoline-8-sulfonamide] |  | 100 to 500
O=C(O[C@H]1CCOC1)N1CCN(C(=O)c2ccc(NS(=O)(=O)c3cccc4cccnc34)c(OC(F)(F)F)c2)CC1 [Compound 343, (S)-Tetrahydrofuran-3-yl-4-(4-(quinoline-8-sulfonamido)-3-(trifluoromethoxy)benzoyl)piperazine-1-carboxylate] |  | 1000 to 20000
CCOC(=O)N1CCN(C(=O)c2ccc(NS(=O)(=O)c3cccc4cccnc34)cn2)CC1 [Compound 447, Ethyl 4-(5-(quinoline-8-sulfonamido)picolinoyl)piperazine-1-carboxylate] |  | 1000 to 20000

More lines, now with the values ahead:

AC50 (Table 4) [nM] | AC50 (Table 5) [nM] | Structure (SMILES)
< 100 |  | CC1CN(Cc2c(F)ccc(F)c2F)CC(C)N1C(=O)c1ccc(NS(=O)(=O)c2cccc3cccnc23)cc1 (stereo not shown) [Compound 199, N-(4-(2,6-dimethyl-4-(2,3,6-trifluorobenzyl)piperazine-1-carbonyl)phenyl)quinoline-8-sulfonamide]
 | < 100 | O=C(c1ccc(NS(=O)(=O)c2cccc3cccnc23)cc1F)N1CCN(Cc2cc(F)cc(F)c2)CC1 [Compound 421, N-(4-(4-(3,5-difluorobenzyl)piperazine-1-carbonyl)-3-fluorophenyl)quinoline-8-sulfonamide]
100 to 500 |  | CC(c1ccc(Cl)c(F)c1)N1CCN(C(=O)c2ccc(NS(=O)(=O)c3cccc4cccnc34)cc2)[C@H](C)C1 (stereo partly drawn) [Compound 157, N-(4-((2R)-4-(1-(4-chloro-3-fluorophenyl)ethyl)-2-methylpiperazine-1-carbonyl)phenyl)quinoline-8-sulfonamide]
< 100 |  | CC(C)OC(=O)N1CCN(C(=O)c2ccc(NS(=O)(=O)c3cccc4cccnc34)cc2)[C@H](C)C1 [Compound 110, (R)-Isopropyl 3-methyl-4-(4-(quinoline-8-sulfonamido)benzoyl)piperazine-1-carboxylate]
< 100 |  | C[C@H]1CN(Cc2cc(F)c(F)c(F)c2)CCN1C(=O)c1ccc(NS(=O)(=O)c2cccc3cccnc23)cc1 [Compound 155, (S)—N-(4-(2-methyl-4-(3,4,5-trifluorobenzyl)piperazine-1-carbonyl)phenyl)quinoline-8-sulfonamide]
< 100 |  | CC(c1ccc(F)cc1F)N1CCN(C(=O)c2ccc(NS(=O)(=O)c3cccc4cccnc34)cc2)[C@H](C)C1 (stereo partly drawn) [Compound 160, N-(4-((2R)-4-(1-(2,4-difluorophenyl)ethyl)-2-methylpiperazine-1-carbonyl)phenyl)quinoline-8-sulfonamide]
< 100 |  | C[C@@H]1CN(CC2CC2)CCN1C(=O)c1ccc(NS(=O)(=O)c2cccc3cccnc23)cc1 [Compound 113, (R)—N-(4-(4-(cyclopropylmethyl)-2-methylpiperazine-1-carbonyl)phenyl)quinoline-8-sulfonamide]
< 100 |  | C[C@@H]1CN(CC2CCCCO2)CCN1C(=O)c1ccc(NS(=O)(=O)c2cccc3cccnc23)cc1 (stereo partly drawn) [Compound 163, N-(4-((2R)-2-methyl-4-((tetrahydro-2H-pyran-2-yl)methyl)piperazine-1-carbonyl)phenyl)quinoline-8-sulfonamide]
 | < 100 | CC(c1c(F)ccc(F)c1F)N1CCN(C(=O)c2ccc(NS(=O)(=O)c3cccc4cccnc34)cc2)CC1 (stereo not shown) [Compound 404, N-(4-(4-(1-(2,3,6-trifluorophenyl)ethyl)piperazine-1-carbonyl)phenyl)quinoline-8-sulfonamide]
< 100 |  | C[C@@H]1CN(Cc2ccccc2F)CCN1C(=O)c1ccc(NS(=O)(=O)c2cccc3cccnc23)cc1 [Compound 150, (R)—N-(4-(4-(2-fluorobenzyl)-2-methylpiperazine-1-carbonyl)phenyl)quinoline-8-sulfonamide]
100 to 500 |  | CC(c1c(F)ccc(F)c1F)N1CCN(C(=O)c2ccc(NS(=O)(=O)c3cccc4cccnc34)cc2)[C@@H](C)C1 (stereo partly drawn) [Compound 192, N-(4-((2S)-2-methyl-4-(1-(2,3,6-trifluorophenyl)ethyl)piperazine-1-carbonyl)phenyl)quinoline-8-sulfonamide]
100 to 500 |  | C[C@H]1CN(C(=O)c2ccc(NS(=O)(=O)c3cccc4cccnc34)cc2)CCN1C(=O)c1ccccn1 [Compound 100]
